According to ChEMBL document CHEMBL1201862, “PubChem BioAssay data set” (2004):
Active and inactive are the calls of the source.

Assays:
Streptococcus [1] = assay: Group A Streptococcus viability loss, dose response, counter-screen for streptokinase expression inhibitor project, luminescence, BacTiterGlo (AID 1915); assay type: functional, organism-based;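 further: potency for reduction of bacterial viability or growth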
Streptococcus [2] = assay: Luminescence Microorganism-Based Dose Response Follow up to Identify Compounds Cytotoxic to Streptococcus. [Related pubchem assays: 1677 (Project Summary), 1915, 1914, 1902 (Retest at Dose), 1900 (Counter Screen), 1662 (Primary HTS)]; assay type: functional, organism-based
Streptokinase A = target: T1, Streptokinase A (Streptococcus pyogenes serotype M1, UniProt P10520); assay: S. pyogenes streptokinase expression inhibitors, potency, dose response, plasminogen activation absorbance, OD405 (AID 1914); assay type: functional, Streptococcus pyogenes M1 GAS;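 further: secreted streptokinase activity via plasminogen activation per viability signal from cell pellet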
T1 sequence (P10520 whole entry): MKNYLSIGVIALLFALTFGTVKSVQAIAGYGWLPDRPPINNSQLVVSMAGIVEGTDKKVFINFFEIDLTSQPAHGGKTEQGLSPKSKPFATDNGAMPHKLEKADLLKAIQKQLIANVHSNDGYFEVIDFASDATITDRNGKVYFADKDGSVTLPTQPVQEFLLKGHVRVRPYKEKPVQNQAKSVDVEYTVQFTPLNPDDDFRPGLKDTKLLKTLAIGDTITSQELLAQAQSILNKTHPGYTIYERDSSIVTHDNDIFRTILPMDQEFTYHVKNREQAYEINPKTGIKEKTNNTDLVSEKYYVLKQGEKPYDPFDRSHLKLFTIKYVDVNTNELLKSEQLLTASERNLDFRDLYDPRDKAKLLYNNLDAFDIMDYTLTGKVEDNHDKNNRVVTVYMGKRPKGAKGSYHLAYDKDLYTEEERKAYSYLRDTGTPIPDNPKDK

[3] = system: Streptococcus sp. 'group A'; assay: growth inhibition of control SK(-) GAS strain, dose response, counter-screen for streptokinase expression inhibitor project, luminescence, kanamycin, BacTiterGlo, confirmation (AID 1900); assay type: functional, organism-based
[4] = PAX5 activity inhibitors, dose response, selectivity assay for PAX8 inhibitor project, cell-based, plate reader, dry powder samples (AID 743047); assay type: functional;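 further: HEK293 cells carrying a Pax5 driven CD19 promoter luciferase reporter; potency of inhibitors that lower reporter luminescence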
Cysteine protease ATG4B = target: T2, Cysteine protease ATG4B (Homo sapiens, UniProt Q9Y4P1); assay: ATG4B protease inhibitors, dose response, biochemical, fluorescence, set 2 (AID 588584); assay type: functional
T2 sequence (Q9Y4P1 whole entry): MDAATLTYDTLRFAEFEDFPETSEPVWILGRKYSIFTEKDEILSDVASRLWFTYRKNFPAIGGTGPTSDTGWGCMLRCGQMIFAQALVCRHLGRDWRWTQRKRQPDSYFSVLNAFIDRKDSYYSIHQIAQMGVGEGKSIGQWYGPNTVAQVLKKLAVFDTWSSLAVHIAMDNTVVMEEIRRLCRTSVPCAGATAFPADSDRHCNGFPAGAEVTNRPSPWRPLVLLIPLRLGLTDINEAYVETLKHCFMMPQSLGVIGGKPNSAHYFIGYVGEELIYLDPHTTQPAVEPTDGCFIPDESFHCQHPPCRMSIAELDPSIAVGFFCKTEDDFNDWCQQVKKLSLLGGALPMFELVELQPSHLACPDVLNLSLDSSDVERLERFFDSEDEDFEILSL

BJ [5] = assay: cytotoxicity toward BJ-TERT-LT-ST fibroblasts, dose response, cell-based, RAS-independent, luminescence (AID 1935); assay type: functional; settings: Homo sapiens;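 further: BJ fibroblasts immortalized with TERT plus LT and ST oncogenes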
[6] = cytotoxicity in COV434 cells, dose response, cytotoxicity control for PAX8 inhibitor project, cell-based, plate reader, dry powder, SA7 (AID 743145); assay type: functional
[7] = inhibitors of SNCA 5'UTR-driven reporter translation, confirmation, H4 neuroglioma cells, luminescence (AID 1988); assay type: functional, cell-based
[8] = NIH:OVCAR-3 ovarian cancer cell cytotoxicity, dose response, PAX8 inhibitor project, plate reader, dry powder samples (AID 743044); assay type: functional, cell-based
[9] = A2780 ovarian cancer cell cytotoxicity, dose response, cytotoxicity control, plate reader, dry powder samples (AID 743046); assay type: functional, cell-based
BJ [10] = assay: cells; assay type: functional, cell-based; settings: Homo sapiens
[11] = PAX2 cell-based inhibition, dose response, selectivity assay for PAX8 inhibitor project, plate reader, dry powder samples (AID 743048); assay type: functional;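 further: HEK293 cells carrying a WT1 promoter luciferase reporter driven by expressed Pax2; potency is for inhibition of Pax2 driven reporter signal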
[12] = cytotoxicity in COV362 ovarian cancer cells, dose response, cytotoxicity control for PAX8 inhibitor project, cell-based, plate reader, dry powder, SA12 (AID 743144); assay type: functional
[13] = cytotoxicity in HEK-293T cells, dose response, cytotoxicity control for TCR NF-kB inhibitor project, luminescence, T-cell screen hits (AID 489026); assay type: functional, cell-based;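 further: cells exposed to compound about 14 hours before the viability readout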
[14] = cytotoxicity toward DRD oncogenic fibroblasts, dose response, cell-based, non-viral oncogenic, luminescence (AID 1934); assay type: functional; settings: Homo sapiens
[15] = IOSE-T80 ovarian epithelial cell cytotoxicity, dose response, cytotoxicity control for PAX8 inhibitor project, plate reader, dry powder samples (AID 743045); assay type: functional, cell-based
[16] = cytotoxicity dependent on PAX8, dose response, cell-based, plate reader, dry powder (AID 743049); assay type: functional
Paired box protein Pax-8 = Paired box protein Pax-8 (Homo sapiens, UniProt Q06710); assay: inhibitors of PAX8-driven TPO luciferase reporter, dose response, RMG-I cells, cherry-pick (AID 687027); assay type: functional, cell-based;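 further: luciferase reporter driven by Pax8 target thyroperoxidase promoter measured by SteadyGlo luminescence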
Chain of Paired box protein Pax-8 (Q06710 whole entry): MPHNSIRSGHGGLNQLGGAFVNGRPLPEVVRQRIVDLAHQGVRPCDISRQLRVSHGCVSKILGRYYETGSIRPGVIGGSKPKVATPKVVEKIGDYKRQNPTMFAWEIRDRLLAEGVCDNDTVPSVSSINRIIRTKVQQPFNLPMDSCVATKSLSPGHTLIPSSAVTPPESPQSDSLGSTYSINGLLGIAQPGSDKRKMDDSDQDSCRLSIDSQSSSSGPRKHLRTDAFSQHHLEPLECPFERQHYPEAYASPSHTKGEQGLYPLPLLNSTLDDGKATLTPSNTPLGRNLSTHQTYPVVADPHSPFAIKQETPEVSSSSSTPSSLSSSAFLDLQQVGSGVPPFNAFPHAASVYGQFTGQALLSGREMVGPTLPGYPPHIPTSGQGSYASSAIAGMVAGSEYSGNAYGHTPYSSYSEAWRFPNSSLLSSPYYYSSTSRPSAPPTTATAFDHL

[17] = IGROV1 ovarian cancer cell cytotoxicity, dose response, PAX8 inhibitor project, plate reader, dry powder samples (AID 743043); assay type: functional, cell-based; settings: IGROV-1
[18] = inhibitors of SNCA 5'UTR-driven translation, confirmation, luminescence, H4 neuroglioblastoma cells, dose confirmation (AID 2454); assay type: functional, cell-based;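 further: H4 neuroglioblastoma cells carrying an alpha-synuclein 5'UTR luciferase reporter; potency for inhibition of the luciferase signal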
[19] = luciferase reporter signal reduction – luminescence, H4-C neuroglioblastoma cells, dose response (AID 2458); assay type: functional, cell-based;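 further: H4 neuroglioblastoma cells stably carrying a luciferase reporter gene fusion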
cells = assay type: functional, cell-based
[20] = cytotoxicity in OV-90 ovarian cancer cells, dose response, PAX8 inhibitor project, cell-based, plate reader, dry powder, SA8 (AID 743149); assay type: functional
[21] = Luminescence-based dose response cell-based high throughput screening assay for cytotoxic compounds using the IEC-6 intestinal epithelial cell line. [Related pubchem assays: 1858 (Summary AID.), 1825 (Counterscreen.), 1907 (Confirmation screen.)]; assay type: functional
[22] = cytotoxicity in OVCAR4 cells, dose response, cytotoxicity control for PAX8 inhibitor project, cell-based, plate reader, dry powder, SA11 (AID 743150); assay type: functional; settings: OVCAR-4
Phospholipase A2 = Phospholipase A2 (Homo sapiens, UniProt P04054); assay: PLA2 enzyme inhibitors, dose response, counter-screen for ATG4B inhibitor project, biochemical, set 2 (AID 588586); assay type: functional
Chain of Phospholipase A2 (P04054 whole entry): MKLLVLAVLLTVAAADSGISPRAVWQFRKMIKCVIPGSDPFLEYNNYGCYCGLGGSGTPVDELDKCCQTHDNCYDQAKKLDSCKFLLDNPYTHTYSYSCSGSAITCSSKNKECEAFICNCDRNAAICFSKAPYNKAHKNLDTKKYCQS

BJ [23] = assay: cytotoxicity toward BJ-TERT fibroblasts, dose response, cell-based, RAS-independent, luminescence (AID 1933); assay type: functional; settings: Homo sapiens
[24] = target: Melanin-concentrating hormone receptor 1 (Homo sapiens, UniProt Q99705); assay: Late-stage fluorescence-based counterscreen for antagonists of the G-protein coupled receptor 7 (GPR7): cell-based dose response assay to identify antagonists of the melanin-concentrating hormone receptor 1 (MCHR1). [Related pubchem assays (depositor defined):AID1861, AID1880, AID1952, AID2148, AID2251, AID2257, AID485339]; assay type: functional;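 further: stimulated with 30 nM MCH peptide agonist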
Chain of Melanin-concentrating hormone receptor 1 (Q99705 whole entry): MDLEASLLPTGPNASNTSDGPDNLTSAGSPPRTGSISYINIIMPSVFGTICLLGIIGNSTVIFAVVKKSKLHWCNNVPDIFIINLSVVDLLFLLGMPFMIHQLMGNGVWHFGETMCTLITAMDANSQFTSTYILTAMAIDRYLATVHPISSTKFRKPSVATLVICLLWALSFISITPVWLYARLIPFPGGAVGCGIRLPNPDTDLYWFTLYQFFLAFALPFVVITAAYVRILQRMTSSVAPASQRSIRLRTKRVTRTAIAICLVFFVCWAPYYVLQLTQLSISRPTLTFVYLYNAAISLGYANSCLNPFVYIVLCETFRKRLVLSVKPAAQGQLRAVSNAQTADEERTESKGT

[25] = target: T3, Neuropeptides B/W receptor type 1 (Homo sapiens, UniProt P48145); assay: GPR7 antagonist potency, late-stage follow-up, cell-based, fluorescence, dose response (AID 463251); assay type: functional
T3 sequence (P48145 whole entry): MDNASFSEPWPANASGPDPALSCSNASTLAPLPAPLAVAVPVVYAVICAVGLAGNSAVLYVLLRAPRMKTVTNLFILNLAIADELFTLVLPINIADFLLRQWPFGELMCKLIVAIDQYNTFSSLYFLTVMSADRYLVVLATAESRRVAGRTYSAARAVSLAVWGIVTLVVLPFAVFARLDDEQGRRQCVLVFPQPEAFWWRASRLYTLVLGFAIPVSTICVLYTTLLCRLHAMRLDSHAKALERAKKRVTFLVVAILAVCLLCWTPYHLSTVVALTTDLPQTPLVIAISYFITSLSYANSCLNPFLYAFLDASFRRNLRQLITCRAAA

[26] = target: NACHT, LRR and PYD domains-containing protein 3 (Homo sapiens, UniProt Q96P20); assay: NALP3 inhibitors in yeast, dose response, luminescent (AID 488799); assay type: functional
Chain of NACHT, LRR and PYD domains-containing protein 3 (Q96P20 whole entry, the tested form may be a part): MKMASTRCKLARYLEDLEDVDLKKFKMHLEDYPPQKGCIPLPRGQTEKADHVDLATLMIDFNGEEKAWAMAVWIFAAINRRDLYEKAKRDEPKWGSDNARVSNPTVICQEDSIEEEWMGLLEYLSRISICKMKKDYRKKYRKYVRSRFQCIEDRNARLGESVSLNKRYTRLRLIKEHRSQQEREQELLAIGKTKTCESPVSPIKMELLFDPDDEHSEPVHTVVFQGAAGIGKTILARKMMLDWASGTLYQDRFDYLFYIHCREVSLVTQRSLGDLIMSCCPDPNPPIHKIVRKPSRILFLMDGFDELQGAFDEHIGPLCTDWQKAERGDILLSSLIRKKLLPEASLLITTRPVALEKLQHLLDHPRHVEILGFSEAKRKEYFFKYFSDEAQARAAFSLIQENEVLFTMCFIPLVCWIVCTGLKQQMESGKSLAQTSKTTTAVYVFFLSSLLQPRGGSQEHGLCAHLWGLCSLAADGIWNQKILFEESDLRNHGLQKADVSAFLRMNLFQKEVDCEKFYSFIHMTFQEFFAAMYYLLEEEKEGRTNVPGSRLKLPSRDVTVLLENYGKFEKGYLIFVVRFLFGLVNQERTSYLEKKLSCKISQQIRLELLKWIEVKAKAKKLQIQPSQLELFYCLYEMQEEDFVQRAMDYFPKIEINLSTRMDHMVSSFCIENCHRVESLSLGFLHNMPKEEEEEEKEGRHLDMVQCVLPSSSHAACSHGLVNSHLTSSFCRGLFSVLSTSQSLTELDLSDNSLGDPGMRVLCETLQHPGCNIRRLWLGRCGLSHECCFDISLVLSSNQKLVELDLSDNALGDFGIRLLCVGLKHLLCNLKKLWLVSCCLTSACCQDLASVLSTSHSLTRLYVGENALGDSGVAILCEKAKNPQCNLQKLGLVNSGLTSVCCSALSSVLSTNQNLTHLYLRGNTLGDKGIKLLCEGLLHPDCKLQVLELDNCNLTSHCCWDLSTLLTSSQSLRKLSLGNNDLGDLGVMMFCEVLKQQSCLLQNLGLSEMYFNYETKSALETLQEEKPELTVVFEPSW

Compound: FC(F)(F)c1cc(-c2ccco2)nc(NCc2ccc(Cl)cc2)n1
- EC50 (Streptococcus [1]): > 150000 nM (not active)
- EC50 (Streptococcus [2]): 9490 nM (active)
- EC50 (Streptokinase A): 9320 nM (active)
- EC50 [3]: 8270 nM (active)

Compound: CCCC1=Nc2cc(C(=O)NCCCOCC)ccc2Sc2ccccc21
- AC50 [4]: 1480 nM (active)
- IC50 (Cysteine protease ATG4B): 49000 nM (inactive)
- EC50 (BJ [5]): 607 nM (inconclusive)
- AC50 [6]: 1300 nM (active)
- EC50 [7]: < 100 nM (active)
- AC50 [8]: 5370 nM (active)
- AC50 [9]: 5660 nM (active)
- EC50 (BJ [10]): 863 nM (inconclusive)
- AC50 [11]: 64000 nM (active)
- AC50 [12]: 1420 nM (active)
- IC50 [13]: > 80000 nM (inactive)
- EC50 [14]: 740 nM (inconclusive)
- AC50 [15]: 1220 nM (active)
- AC50 [16]: 7230 nM (active)
- AC50 (Paired box protein Pax-8): 1740 nM (active)
- AC50 [17]: 7990 nM (active)
- EC50 [18]: 836 nM (active)
- EC50 [19]: 592 nM (active)
- EC50 (cells): 985 nM (active)
- AC50 [20]: 1360 nM (active)
- IC50 [21]: 389 nM (active)
- AC50 [22]: 885 nM (active)
- IC50 (Phospholipase A2): 48900 nM (inactive)
- EC50 (BJ [23]): 586 nM (inconclusive)

Compound: Cc1ccc(-n2ncc(Cl)c(Oc3ccc(OC(F)(F)F)cc3)c2=O)cc1
- IC50 [24]: 2900 nM (active)
- IC50 [25]: 880 nM (active)

Compound: O=C(NCCCc1ccccc1)c1c(O)nc2sccn2c1=O
- IC50 [26]: 9610 nM (active)
